According to patent publication US8940800B2, “Pharmaceutical compositions with enhanced performance” (Bend Research, Inc., priority 2004, dated 2015):
Values joined by “and” are separate entries in the source; they are usually repeats but may differ in a detail not shown here. Equal values may be shown once. Each block holds one molecule with its values, some of them ahead of it.

What was measured:
[1] = Aqueous solubility of the drugs used in the examples; conditions: water
[2] = In vitro membrane permeation test, Drug 1 (Example 6); type: physicochemical; conditions: 37° C.
Method: Dispersion 14 was evaluated in vitro using a membrane permeation test as follows. An Accurel® PP 1E microporous polypropylene membrane was obtained from Membrana GmbH (Wuppertal, Germany). The membrane was washed in isopropyl alcohol and rinsed in methanol in a sonicating bath for 1 minute at ambient temperature, and then allowed to air dry at ambient temperature. The feed side of the membrane was then plasma-treated to render it hydrophilic by placing a sample of the membrane in a plasma chamber. The atmosphere of the plasma chamber was saturated with water vapor at a pressure of 550 mtorr. A plasma was then generated using radio frequency (RF) power inductively coupled into the chamber via annular electrodes at a power setting of 50 watts for 45 seconds. The contact angle of a drop of water placed on the surface of the plasma-treated membrane was about 40°. […]
To form the feed solution, a 1.2 mg sample of the dispersion was weighed into the feed reservoir. […] Samples were then diluted in 250 μL IPA and analyzed using HPLC. […]
The maximum flux of drug across the membrane (in units of μg/cm^2-min) was determined by performing a least-squares fit to the data from 0 to 60 minutes to obtain the slope, multiplying the slope by the permeate volume (5 mL), and dividing by the membrane area (4.9 cm^2). […]

[3] = In vitro dissolution test, microcentrifuge method, PBS (Example 1); type: physicochemical; conditions: PBS pH 6.5, 37° C.; for AUC90: 90 minutes; for C1200: concentration at 1200 minutes; for MDC,90: maximum concentration during first 90 minutes
Method: Dispersions 2, 3, 4, and 10 were evaluated in in vitro dissolution tests using a microcentrifuge method. In this method, 3.6 mg of the spray-dried dispersions was added to a 2-mL microcentrifuge tube. The tube was placed in a 37° C. sonicating bath, and 1.8 mL of phosphate-buffered saline (PBS) at pH 6.5 and 290 mOsm/kg was added. The samples were quickly mixed using a vortex mixer for about 90 seconds. The theoretical maximum concentration of drug if all the drug dissolved was 1000 μg/mL. The samples were centrifuged at 13,000 G at 37° C. for 1 minute. The resulting supernatant solution was then sampled (100 μL) and diluted with 200 μL methanol and then analyzed by HPLC. The tubes were then mixed on the vortex mixer and allowed to stand undisturbed at 37° C. until the next sample. Samples were collected at 4, 10, 20, 40, 90, and 1200 minutes.
As controls, in vitro tests were performed using the procedure described above, except that 0.18 mg of crystalline drug was placed in a microcentrifuge tube and mixed with 1.8 mL of PBS.

[4] = Microcentrifuge dissolution test in MFD solution, crystallization inhibition (Example 5); type: physicochemical; conditions: 37° C.
Method: First, Dispersions 12 and 13 were evaluated in an in vitro dissolution test using the microcentrifuge method described in Example 1 except that 2.04 mg of the dispersions were separately added to microcentrifuge tubes in duplicate. A 1.8-mL sample of a model fasted duodenal (MFD) solution was then added to the tube and the samples were quickly mixed using a vortex mixer for about 90 seconds. The theoretical maximum concentration of drug if all the drug dissolved was about 100 μgA/mL, where “μgA” refers to the active micrograms of Drug 5. Samples were collected and analyzed by HPLC using a Kromasil C4 column (250 mm×4.6 mm). The mobile phase consisted of 0.2 vol % H3PO4/acetonitrile in a volume ratio of 45/55. Drug concentration was calculated by comparing UV absorbance at 245 nm to the absorbance of Drug 5 standards.
As a control, […] of Drug 5 (in the HCl salt form) was added to a separate microcentrifuge tube so that the concentration of drug if all of the drug had dissolved would have been about 200 μgA/mL. […] The MDC90 values provided by Dispersions 12 and 13 were 3.5-fold and 3.0-fold that of the crystalline Drug 5 control, while the AUC90 values were 2.6-fold and 2.7-fold that of the crystalline control. Furthermore, the concentration of dissolved Drug 5 after 1200 minutes (C1200) was higher for Dispersions 12 and 13 than the crystalline control, with Dispersions 12 and 13 providing C1200 values that were 1.7- and 1.4-fold that of the crystalline control, respectively.

[5] = Solubility of drug in polymer by double-scan DSC (Example 3); type: physicochemical
Method: The solubilities of drug in HPMCAS polymers were determined using a double-scan differential scanning calorimetry (DSC) analysis of the dispersions as follows. The DSC analysis was carried out on either a TA Instruments DSC2920 or a Mettler DSC 821, calibrated with indium. DSC samples were prepared by weighing 2-4 mg of the dispersion in an aluminum pan with a pinhole. The sample was heated under nitrogen, at a rate of 5° C. per minute from about −20° C. to about 140° C. […] Heating above the Tg allows the drug to phase separate from the dispersion if the drug solubility in the polymer is lower than the drug loading.
The sample was then cooled and the sample was scanned a second time using the procedures outlined above. […] The amount of phase separated amorphous drug was estimated by comparing the magnitude of the heat capacity for the phase separated amorphous drug with the heat capacity for pure amorphous drug controls. […]

- solubility [1]: < 1 µg/mL
SMILES: CCc1cc(Oc2cccc(N(Cc3cccc(OC(F)(F)C(F)F)c3)C[C@@H](O)C(F)(F)F)c2)ccc1Cl [Drug 4, (2R)-3-[[3-(4-chloro-3-ethylphenoxy)phenyl][[3-(1,1,2,2-tetrafluoroethoxy)phenyl]methyl]amino]-1,1,1-trifluoro-2-propanol]

SMILES: CCOC(=O)N1c2ccc(C(F)(F)F)cc2[C@@H](N(Cc2cc(C(F)(F)F)cc(C(F)(F)F)c2)C(=O)OC)C[C@H]1CC [Crystalline Drug 1, [2R,4S]4-[(3,5-bis-trifluoromethyl-benzyl)-methoxycarbonyl-amino]-2-ethyl-6-trifluoromethyl-3,4-dihydro-2H-quinoline-1-carboxylic acid ethyl ester]
- Maximum Flux of Drug 1 ([2]; feed solution 0.5% NaTC/POPC (MFD), permeate 20 wt % decanol in decane): 0.076 μg/cm^2-min
- Maximum Flux of Drug 1 ([2]; feed solution 2.0 wt % NaTC/POPC (fed state model)): 0.13 μg/cm^2-min
- AUC90 [3]: <88 min-μg/mL
- C1200 [3]: <1 µg/mL
- MDC,90 [3]: <1 µg/mL

- solubility [1]: < 1 µg/mL
SMILES: CC[C@@H]1C[C@H](N(Cc2cc(C(F)(F)F)cc(C(F)(F)F)c2)C(=O)OC)c2cc(C(F)(F)F)ccc2N1C(=O)OC(C)C [Drug 3, [2R,4S]4-[(3,5-bis-trifluoromethyl-benzyl)-methoxycarbonyl-amino]-2-ethyl-6-trifluoromethyl-3,4-dihydro-2H-quinoline-1-carboxylic acid isopropyl ester]

- AUC90 [3]: <88 min-μg/mL
- C1200 [3]: <1 µg/mL
- MDC,90 [3]: <1 µg/mL
SMILES: CC[C@@H]1C[C@H](N(Cc2cc(C(F)(F)F)cc(C(F)(F)F)c2)C(=O)OC)c2cc(C(F)(F)F)ccc2N1C(=O)OC(C)C [Crystalline Drug 3, [2R,4S]4-[(3,5-bis-trifluoromethyl-benzyl)-methoxycarbonyl-amino]-2-ethyl-6-trifluoromethyl-3,4-dihydro-2H-quinoline-1-carboxylic acid isopropyl ester]

- solubility [1]: < 0.1 µg/mL and ~10 µg/mL
SMILES: O=C1Cc2cc(CCN3CCN(c4nsc5ccccc45)CC3)c(Cl)cc2N1 [Drug 5]

- AUC90 [4]: 1,700 min-μg/mL
- MDC,90 [4]: 22 µg/mL
- C1200 ([4]; 1200 minutes): 9 µg/mL
SMILES: O=C1Cc2cc(CCN3CCN(c4nsc5ccccc45)CC3)c(Cl)cc2N1 [Crystalline Drug 5]

SMILES: CCOC(=O)N1c2ccc(C(F)(F)F)cc2[C@@H](N(Cc2cc(C(F)(F)F)cc(C(F)(F)F)c2)C(=O)OC)C[C@H]1CC [Drug 1, [2R,4S]4-[(3,5-bis-trifluoromethyl-benzyl)-methoxycarbonyl-amino]-2-ethyl-6-trifluoromethyl-3,4-dihydro-2H-quinoline-1-carboxylic acid ethyl ester]
- solubility of the drug in the polymer ([5]; in the H grade of HPMCAS): 35-40 wt %
- solubility of the drug in the polymer ([5]; in the M grade of HPMCAS): 25 to 30 wt %
- solubility [1]: < 0.04 µg/mL

- solubility [1]: < 1 µg/mL
SMILES: CC[C@@H]1C[C@H](N(Cc2cc(C(F)(F)F)cc(C(F)(F)F)c2)C(C)=O)c2cc(C(F)(F)F)ccc2N1C(=O)OC(C)C [Drug 2, [2R,4S]4-[acetyl-(3,5-bis-trifluoromethyl-benzyl)-amino]-2-ethyl-6-trifluoromethyl-3,4-dihydro-2H-quinoline-1-carboxylic acid isopropyl ester]
